Measurements taken from US5853731A, “Thromboxane A2 Receptor antagonism and antioxidant action of cinnamophilin and its derivatives, their pharmaceutical compositions and uses” (National Science Council, priority 1997, dated 1998).

How the values were obtained:
TXA2 receptor = assay: Large scale screening test: TXA2 receptor antagonism; assay type: biochemical
[1] = Antioxidation (absorbance at 500 nm, FeSCN method)
Text: (Absorbance at 500 nm, using FeSCN method)

TX synthase = assay: Large scale screening test: TX synthase inhibition; assay type: biochemical
cAMP formation = cAMP formation caused by arachidonic acid (AA); assay type: cell-based; details: for cAMP: caused by AA
rabbit platelets = assay: Aggregation of washed rabbit platelet suspension induced by AA, PAF, collagen, U-46619, ADP and thrombin; assay type: cell-based
Description: A. Preparation of aggregation inducing agent
1. Collagen (bovine tendon) in 15 mM aqueous acetic acid was homogenized at 4° C. to form a well dispersed suspension in 1 mg/ml and stocked at -70° C. Before using, it was thawed and well homogenized.
2. PAF was dissolved in CCl4 and stocked at […] Before using, it was diluted with deionized water.
3. […] and sodium arachidonate (AA) were dissolved in deionized water for use.
B. Preparation of platelets
A suspension of platelets was prepared according to the reported method. EDTA (100 mM) and the blood obtained from rabbit's ear vein were mixed in the ratio of 1:4, and immediately centrifuged (120× g) at room temperature for 10 minutes. Platelet-rich plasma was subjected to further centrifuge (500× g) for another 10 minutes. After the plasma was removed, the platelets in the lower layer were suspended in the Tyrode solution containing EDTA (2 mM) and bovine serum albumin (3.5 mg/ml), and subjected to centrifuge (500× g) again for 10 minutes. The platelets obtained were suspended in a Tyrode solution containing no EDTA, and was adjusted to about 4.5×10^8 cells/ml by a cell counter. 1 mM of calcium ion (Ca^2+) was added to the suspension. 30 minutes after the addition, the experiment was conducted. The composition of Tyrode […]: NaCl (136.9), KCl (2.7), NaH2 PO4 (0.4), NaHCO3 (11.9), glucose (11.1).
C. Platelet aggregation and ATP release reaction test
The method reported by Born (J. Physiol. 168, 178, 1963) was used to determine the platelet aggregation by a Lumi-aggregometer (Model 1020, Payton, Canada). Platelet suspension (0.4 ml) was added into a small glass tube coated with silicone, and stirred at 900 rpm with a small magnetic stirrer. Unless otherwise specified, the antagonist was added 1 minute before the inducing agent, and all the reactions were carried out at 37° C. The aggregation was calculated by following formula: […]
aggregation (% )=(light absorption before adding inducing agent-light absorption after adding inducing agent)/(light absorption before adding inducing agent-light absorption of Tyrode solution)×100% […]
| Platelets were precincubated with 1a, 1b, 1c, 1e, 2 or DMSO (0.5%, | control) at 37° C. for 3 min, then the inducer was added.

TXA2 receptor antagonizing property (TXA2 receptor): TXA2 receptor antagonizing properties
SMILES: COc1cc(CC(C)C(C)C(=O)c2ccc(O)c(OC)c2)ccc1O (stereo not drawn) [Compound 1, cinnamophilin]
antioxidation capability ([1]; 20 μM, compared with α-tocopherol at same concentration): lower than α-tocopherol at the same concentration
Absorbance at 500 nm ([1]; 20 μM, induce time 0, control 0.047): 0.045
Absorbance at 500 nm ([1]; 20 μM, induce time 4, control 0.084): 0.076
Absorbance at 500 nm ([1]; 20 μM, induce time 7, control 0.201): 0.146
Absorbance at 500 nm ([1]; 20 μM, induce time 10, control 0.343): 0.176
Absorbance at 500 nm ([1]; 20 μM, induce time 16): 0.346
Absorbance at 500 nm ([1]; 20 μM, induce time 19): 0.399
Absorbance at 500 nm ([1]; 20 μM, induce time 22): 0.508
Absorbance at 500 nm ([1]; 20 μM, induce time 25): 0.796
Absorbance at 500 nm ([1]; 20 μM, induce time 28): 1.301
inhibitory effect on fatty oil peroxidation ([1]; 40 μM): potential inhibitory effect on fatty oil peroxidation
Absorbance at 500 nm ([1]; 40 μM, induce time 0, control 0.047): 0.037
Absorbance at 500 nm ([1]; 40 μM, induce time 4, control 0.084): 0.056
Absorbance at 500 nm ([1]; 40 μM, induce time 7, control 0.201): 0.082
Absorbance at 500 nm ([1]; 40 μM, induce time 10, control 0.343): 0.116
Absorbance at 500 nm ([1]; 40 μM, induce time 16): 0.156
Absorbance at 500 nm ([1]; 40 μM, induce time 19): 0.204
Absorbance at 500 nm ([1]; 40 μM, induce time 22): 0.256
Absorbance at 500 nm ([1]; 40 μM, induce time 25): 0.282
Absorbance at 500 nm ([1]; 40 μM, induce time 28): 0.349
Absorbance at 500 nm ([1]; 40 μM, induce time 31): 0.405
Absorbance at 500 nm ([1]; 40 μM, induce time 34): 0.453
Absorbance at 500 nm ([1]; 40 μM, induce time 37): 0.525
Absorbance at 500 nm ([1]; 40 μM, induce time 40): 0.687
antioxidation capability versus control ([1]; compared with 0.5% DMSO as control): potential antioxidation capable comparing to 0.5% DMSO as control
TX synthase inhibitory property (TX synthase): TX synthase inhibitory
cAMP level (cAMP formation; 0.03-10 μM, AA): increase PGE2 and cAMP levels
cAMP (cAMP formation; conc 1 μM): 22 ± 3 pmol/mL
cAMP (cAMP formation; conc 3 μM): 29 ± 3 pmol/mL
cAMP (cAMP formation; conc 10 μM): 35 ± 2 pmol/mL
Aggregation (%) (rabbit platelets; inducer AA (100 μM), conc 5 μM, control 92.1 ± 1.3): 83.8 ± 4.6%
Aggregation (%) (rabbit platelets; inducer AA (100 μM), conc 10 μM, control 92.1 ± 1.3): 79.0 ± 6.3%
Aggregation (%) (rabbit platelets; inducer AA (100 μM), conc 20 μM, control 92.1 ± 1.3): 42.4 ± 3.0%
Aggregation (%) (rabbit platelets; inducer AA (100 μM), conc 50 μM, control 92.1 ± 1.3): 3.8 ± 3.5%
Aggregation (%) (rabbit platelets; inducer ADP (20 μM), conc 300 μM, control 81.6 ± 3.0): 75.6 ± 9.2%
Aggregation (%) (rabbit platelets; inducer PAF (2 ng/ml), conc 300 μM, control 91.7 ± 2.0): 83.5 ± 8.0%
Aggregation (%) (rabbit platelets; inducer U-46619 (1 μM), conc 200 μM, control 89.4 ± 1.2): 22.1 ± 2.4%
Aggregation (%) (rabbit platelets; inducer collagen (10 μg/ml), conc 50 μM, control 93.6 ± 1.0): 87.0 ± 1.6%
Aggregation (%) (rabbit platelets; inducer collagen (10 μg/ml), conc 100 μM, control 93.6 ± 1.0): 44.7 ± 10.0%
Aggregation (%) (rabbit platelets; inducer collagen (10 μg/ml), conc 200 μM, control 93.6 ± 1.0): 0.0 ± 0.0%
Aggregation (%) (rabbit platelets; inducer thrombin (0.1 U/ml), conc 300 μM, control 94.8 ± 2.0): 94.6 ± 1.4%
